# From ChEMBL document CHEMBL1147702, “N-Benzylbenzamides: a new class of potent tyrosinase inhibitors” (Bioorg Med Chem Lett, 2006)
# Biological target: T1, Tyrosinase (Agaricus bisporus, UniProt O42713)
# T1 sequence (O42713 whole entry): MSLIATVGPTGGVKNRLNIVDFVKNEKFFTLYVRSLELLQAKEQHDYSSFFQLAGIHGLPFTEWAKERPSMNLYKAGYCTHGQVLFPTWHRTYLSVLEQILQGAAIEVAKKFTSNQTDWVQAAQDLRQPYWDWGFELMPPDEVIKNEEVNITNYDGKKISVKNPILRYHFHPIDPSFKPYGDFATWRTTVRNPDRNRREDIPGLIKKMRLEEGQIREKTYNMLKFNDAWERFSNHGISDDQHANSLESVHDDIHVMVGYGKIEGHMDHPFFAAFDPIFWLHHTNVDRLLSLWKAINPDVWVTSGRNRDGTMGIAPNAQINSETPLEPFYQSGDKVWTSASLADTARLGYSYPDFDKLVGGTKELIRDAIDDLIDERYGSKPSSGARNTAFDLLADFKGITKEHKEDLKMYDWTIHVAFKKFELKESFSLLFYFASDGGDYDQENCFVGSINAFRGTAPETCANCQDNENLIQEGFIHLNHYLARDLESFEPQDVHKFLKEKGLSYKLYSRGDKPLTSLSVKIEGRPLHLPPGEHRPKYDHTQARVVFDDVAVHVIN
# Description: Inhibition of mushroom tyrosinase
Compound,IC50 [µM],Ki [µM]
O=C(NCc1ccc(O)cc1)c1ccc(O)cc1O,1820,–
O=C(NCc1ccc(O)cc1O)c1ccc(O)cc1O,29,–
O=C(NCc1cc(O)c(O)c(O)c1)c1ccc(O)cc1O,550,–
O=C(NCc1cc(O)c(O)c(O)c1)c1cc(O)cc(O)c1,705,–
O=C(NCc1ccc(O)cc1)c1cc(O)c(O)c(O)c1,1180,–
O=C(NCc1ccc(O)cc1O)c1ccc(O)c(O)c1,11,–
O=C(NCc1cc(O)c(O)c(O)c1)c1cc(O)c(O)c(O)c1,555,–
O=C(NCc1ccc(O)cc1O)c1cc(O)c(O)c(O)c1,17,–
O=C(NCc1ccccc1)c1ccc(O)cc1O,1660,–
O=C(NCc1ccccc1)c1ccccc1,1990,–
O=C(NCc1ccc(O)cc1)c1ccc(O)c(O)c1,> 2000,–
O=C(NCc1cc(O)c(O)c(O)c1)c1ccc(O)c(O)c1,280,–
O=C(NCc1ccccc1)c1cc(O)c(O)c(O)c1,780,–
O=C(NCc1ccccc1)c1ccc(O)c(O)c1,> 2000,–
O=C(NCc1ccccc1)c1cc(O)cc(O)c1,700,–
O=C(NCc1ccc(O)cc1O)c1cc(O)cc(O)c1,2.2,1.3
O=C(NCc1ccc(O)cc1)c1cc(O)cc(O)c1,710,–
